A word on the melting point: it is the temperature, or range, at which the solid turns liquid.

As for `Cc1cc(C(F)(F)F)nn1CC(=O)N1CCC(c2nc(NC(=O)Nc3ccccc3)cs2)CC1`, the melting point is 193 °C. In the case of `COc1cc(CC(C)=O)c([N+](=O)[O-])cc1Cl`, the melting point lay within 114 to 115 °C.

For the molecule `COc1cc(C2=C(c3cc4ccccc4[nH]3)C(=O)NC2=O)cc(OC)c1OC`, the melting point was determined as 252 °C.

Molecule `Cn1cc2cc3ncc(-c4ccc(Cl)s4)nc3cc2n1` had a melting point of 222 to 224 °C.

In the case of `Cn1cnc2nc(-c3ccc(F)cc3)nn2c1=S`, the melting point was above 300 °C. `CCCNC(=O)n1nc(Oc2c(Cl)cc(C(F)(F)F)cc2Cl)cc1C(Cl)(Cl)Cl`: the melting point was in the range of 89 to 91 °C. `CN1CCC(Cc2ccccc2)(Oc2ccc([N+](=O)[O-])cc2)CC1` yielded a melting point of 116 to 117 °C.

Molecule `COCCOCCOc1cccc2c1C1(COc3cc4c(cc31)OCCO4)C(=O)N2C` (configuration not stated) showed a melting point of 109 to 110 °C. In turn, `CC(=O)Nc1cc2cc(N)ccc2oc1=O` registered a melting point of 250 to 252 °C.

Regarding `N#Cc1cccc(CSCCNC(=O)c2c(Cl)cccc2Cl)c1`, the melting point lay within 123 to 125 °C. In turn, `CN(C)Cc1cc(C(C)(C)C)cc(C(C)(C)C)c1O` came in with a melting point of 54 to 56 °C. In turn, `O[C@@H]1CN(Cc2ccccc2)C[C@H]1Oc1c(Cl)cccc1Cl` (relative stereo) registered a melting point of 78 to 80 °C. Regarding `CCC1(O)CC(=O)OCc2c1cc1n(c2=O)Cc2c-1nc1ccccc1c2-c1ccc(C)cc1` (configuration not stated), the melting point was above 280 °C. Take `Cc1cc2c(NCCc3cccc(C(F)(F)F)c3)ncnc2o1`: the melting point turned out to be 119 °C.

Take `CCCCn1cc(C2CCN(Cc3ccc(OC)c(C(=O)O)c3)CC2)c2cccnc21`: the melting point lay in the range of 174 to 175 °C. For `CC1c2cccn2-c2ccc(Br)cc2N1S(=O)(=O)c1ccc(O)cc1` (configuration not stated) the value was 204 to 206 °C. For `CC12CCC3C(CCC4C(=O)CCCC43C)C1CCC2OC1CCCCO1` (configuration not stated), the melting point lay within 123 to 126 °C. Regarding `COc1ccc2ccc(OS(=O)(=O)C(F)(F)F)c(-c3nnc(Cl)c4ccccc34)c2c1`, the melting point is 140 °C.

Molecule `CC(=O)n1c(=O)n(-c2ccccc2)c(=O)n1C(C)=O` registered a melting point of 169 to 170 °C. `C[C@@H]1S[C@@H](C(=O)Nc2ccc(CN3C(=O)CCCC3=O)cc2)Cc2cc3c(cc2C1=O)OCO3` gave a melting point of 205 to 208 °C.

`Cc1ccc(Oc2ccc(C)cc2C(=O)O)cc1` came in with a melting point of 113 to 115 °C.

`CCn1c(COc2ccc(NC(=O)c3cc(F)cc(N4CCOCC4)c3)c3ccccc23)n[nH]c1=O` returned a melting point of 260 °C. For `CCOc1nc(F)cc2nc(=S)[nH]n12` the value was 78 to 82 °C; for `O=C1c2ccc3cc(C(=O)N4CCN(Cc5ccccc5)CC4)cnc3c2N=CC1[N+](=O)[O-]` (configuration not stated), 213 to 216 °C. Regarding `CCCC(C)(C)c1cc(C=O)cc(C(C)(C)CCC)c1O`, the melting point was in the range of 90 to 92 °C.

`COC(=O)N1CCc2ccc(C(=O)CCC3CCN(C(=O)c4ccccc4)CC3)cc2CC1` registered a melting point of 120 to 123 °C. The value for `O=C(NCCn1ccnc1)c1sc2ccccc2c1Cl` was 132 to 134 °C.

`NS(=O)(=O)c1cccc(NC(=O)c2cnn3c(C(F)F)cc(-c4ccc(C(F)(F)F)c(Cl)c4)nc23)c1` came in with a melting point of 272 °C. For `Cc1ccnc2c1nc(-c1cccnc1N)n2-c1ccc(CN)cc1`, the melting point was 210 to 212 °C. As to `CCOC(=O)c1cc(S(=O)(=O)N2CCN(CC)CC2)cnc1OCC`, the melting point was 66 to 68 °C. For `CC1C2C(C(=O)N1Cc1ccc3c(c1)OCO3)C(c1ccc(Br)cc1)N(C)C2(C)C` (configuration not stated) the value was 142 to 144 °C; for `COc1ccc2c(c1)c(CC(=O)OCC(=O)O)c(C)n2C(=O)c1ccc(C(F)(F)F)cc1`, 166 to 167 °C; for `Oc1ccc(-c2cnc3cnc(-c4cccc(O)c4)nc3c2)cc1`, above 268 °C. Consider `CCCCCCCCCCCCc1cn(C(C(=O)O)c2ccccc2)cn1` (configuration not stated), for which the melting point is 110 to 118 °C. The value for `CC(C)(C)COc1c(-c2ccc(S(C)(=O)=O)cc2)cnn(-c2ccc(F)c(F)c2)c1=O` was 126 to 128 °C. As for `COc1ccc(C[C@@H](C(=O)O)[C@@H](O)c2ccc(F)cc2)cc1` (racemic), the melting point lay within 96 to 98 °C. For `Nc1nc(-n2cc(C(=O)O)c(=O)c3cc(F)c(F)c(Cl)c32)c(F)cc1Cl` the value was 280 °C. The molecule `CCN(C(=O)C(C)CSC(c1ccccc1)(c1ccccc1)c1ccccc1)c1cn(-c2cccnc2)nc1Cl` (configuration not stated) returned a melting point of 64 to 66 °C. Turning to `CCCCc1ccc(N)nc1`, the melting point lay within 30 to 33 °C. The value for `CS(=O)(=O)N(CCI)N(S(C)(=O)=O)S(C)(=O)=O` was 136 to 138 °C; that for `COc1ccc(C(=O)Nc2ccccc2S(C)(=O)=O)cc1OC1CCCC1` was 119 to 121 °C. For `CCCC1c2cc(C(C)(C)C)cc(C(C)(C)C)c2OP(=O)(c2ccccc2)Oc2c1cc(C(C)(C)C)cc2C(C)(C)C` (configuration not stated) the value was 232 to 234 °C. The molecule `COc1ccccc1Oc1c(O)nc(-c2cccc(OCc3ccccc3)c2)nc1O` showed a melting point of 192 to 195 °C.

Turning to `COc1ccc2c(n1)C1(CO2)C(=O)N(Cc2cnc(C(C)C)s2)c2cccc(Br)c21` (configuration not stated), the melting point was in the range of 158 to 160 °C. The molecule `CCOC(=O)c1cc(NCc2ccccc2)c(Oc2ccc(OCc3ccccc3)cc2)c(S(N)(=O)=O)c1` yielded a melting point of 166 °C. The value for `O=C(NCCCc1ccncc1)N(CCC12CC3CC(CC(C3)C1)C2)CC1CC1` was 123 to 125 °C; that for `CCCCCCC1C(=O)NC2(C(O)C3CCCCC3)C(=O)OC12C` (configuration not stated) was 167 °C.

`Cc1cc(-c2cnn3c(C(F)(F)F)cc(-c4ccc(Cl)c(C)c4)nc23)cc(C)n1` displayed a melting point of 254 °C.

The molecule `Cc1cc(S(=O)(=O)c2c[nH]c3ccc(F)cc23)ccc1C1CCN(C)C1` (configuration not stated) gave a melting point of 86.5 to 93.5 °C.

`NC(=O)N1C(=O)Cc2ccc(-c3ccccc3)cc21`: the melting point fell in the range of 188 to 189 °C. With `CC(=O)SCC1(C)C(=O)N2CCCC(C(=O)OC(C)(C)C)N2C1=O` (configuration not stated), the melting point fell in the range of 78 to 79 °C.

The molecule `O=C(O)c1cn2c3c(c(Cl)cc(Cl)c3c1=O)CCC2` showed a melting point of 300 to 304 °C. For `O=[N+]([O-])c1ccc(N2C3C4CCC(C4)C32)c2nnoc12` (configuration not stated) the value was 132 to 133 °C. The value for `COc1ccc(N2C[C@](C)(CO)OC2=O)cc1` was 131 to 132 °C; that for `CC(NC(=O)Cc1cc(F)cc(F)c1)C(=O)NC1C(=O)NCc2ccccc21` (configuration not stated) was 243 to 244 °C. The molecule `Cn1c(COc2ccc(CC3SC(=O)NC3=O)cc2)nc2cc(C(F)(F)F)cnc21` (configuration not stated) displayed a melting point of 212 to 214 °C. In turn, `O=C(Cc1ccc(CCNS(=O)(=O)c2ccc(Cl)cc2)cc1)Nc1nnn[nH]1` came in with a melting point of 168 to 170 °C.

In turn, `CCCOc1ncc(C#C[Si](C)(C)C)cc1-c1nc2c(CC)nn(CCN3CCOCC3)c2c(=O)[nH]1` showed a melting point of 132 to 134 °C. `C[C@@H]1N=C(c2ccccc2)c2cc(C#CCCCC(=O)O)ccc2N(C)C1=O` yielded a melting point of 62 to 63 °C. The value for `CC12CCC(=O)C=C1CCCC2n1cc(-c2ccccc2)nn1` (configuration not stated) was 158 to 159 °C. For `O=C(O)C1=CSC2C(=Cc3ccc4nc5n(c4c3)CCCS5)C(=O)N12` (configuration not stated), the melting point is above 250 °C. The value for `CCOC(=O)c1sc(OCC)nc1C(F)(F)F` was 30.5 to 31.5 °C; that for `CC(C)(C)c1cc(OCCCCc2nnn[nH]2)cc(C(C)(C)C)c1O` was 141 to 142 °C. The value for `CCCCCc1noc(-c2ccc(N3CCN(C(=O)c4ccccc4C(F)(F)F)CC3)nn2)n1` was 164 °C; that for `CCOC(=O)C1=C[C@@H](OC(CC)CC)[C@@H](NC(C)=O)[C@H](O)[C@@H]1O` was 154 °C. The value for `COc1ccc(C(O)c2cccc(OCc3ccc4ccccc4n3)c2)cc1` (configuration not stated) was 70 to 80 °C; that for `COC(=O)c1cc(-c2ccccc2)c(=O)n2c1-c1sccc1S(=O)(=O)C=C2` was 241 to 243 °C; that for `CCCCCN1C(=O)C(N)(CC(=O)c2cccs2)c2ccccc21` (configuration not stated) was 167 to 169 °C. The molecule `O=C1O[C@@H](CN2CCC(Cc3ccc(F)cc3)CC2)CN1c1ccc(O)cc1` showed a melting point of 164 to 165 °C.

As to `O=C1c2ccccc2S(=O)(=O)N1CS(=O)(=O)c1c(Cl)cccc1Cl`, the melting point fell in the range of 201 to 203 °C.

As to `CC1(C)COC(c2ccc(N)cc2)=N1`, the melting point is 227 to 230 °C.

Turning to `CN(C)c1nc2sc3c(NCCN4CCOCC4)ncnc3c2c2c1CCC(C)(C)C2`, the melting point is 173 to 175 °C.

Regarding `COc1ccc(C)cc1OCCO`, the melting point was in the range of 42 to 43 °C. Take `CC(C)(C)OC(=O)N1CCn2c(c(C(N)=O)c(Cl)c2-c2ccccc2)C1`: the melting point lay within 183 to 185 °C. Take `Nc1nc(=O)n(C2OC(CO)CC2O)cc1F` (configuration not stated): the melting point is 137 to 138 °C. `Oc1cc(OCc2ccccc2)cc(OCc2ccccc2)c1`: the melting point lay within 107 to 109 °C. `COc1cccc(-c2nc(-c3ccccc3COC(=O)c3ccccc3)n[nH]2)c1` registered a melting point of 128 to 130 °C. Take `CCOc1cc2c(cc1OCC)-c1c(C#N)sc(=N)n1CC2`: the melting point fell in the range of 180 to 182 °C. `Cc1cc(Oc2ccc([N+](=O)[O-])c(Cl)c2)n[nH]1` gave a melting point of 91 to 93 °C. The value for `CS(=O)(=O)N[C@H]1CC[C@H](CCN2CCN(c3nccc4c3CCO4)CC2)CC1` was 220 °C.

On to `CNC(=S)Nc1ccc(Cl)nc1`, for which the melting point came to 164 °C. In turn, `Cc1oc(-c2ccccc2)nc1CCOc1ccc(CCC#N)cn1` came in with a melting point of 105 to 106 °C. `CC1CCC(n2ncc(-c3ccc(S(C)(=O)=O)cc3)c(-c3ccc(F)cc3)c2=O)C1` (configuration not stated) gave a melting point of 169 to 171 °C. `CN1CCC(OC2c3cccc(OCc4ccccc4)c3CCn3cc(-c4ccccc4)nc32)CC1` (configuration not stated) registered a melting point of 68 °C.

Turning to `Cc1nc2n(c(=O)c1CCN1CCC(C(O)c3ccc(F)cc3)CC1)CCS2` (configuration not stated), the melting point is 204 °C.

Turning to `NS(=O)(=O)OCCc1ccccn1`, the melting point was 89 to 91 °C. With `O=C(NCCN1CCN(c2cccc3c2OCC(CO)O3)CC1)c1ccc(F)cc1` (configuration not stated), the melting point was 183 to 185 °C.

These data come from a melting point compilation (Tetko et al.; mined from patent text by program, amines drawn as free bases though some values may be those of a salt).
